{
  "source": "ChEMBL document CHEMBL4507263",
  "about": "“Data for DCP probe BAY-474” (2021)",
  "key": {"[1]": {"molecular_target": "Ephrin type-A receptor 1 (Homo sapiens) (UniProt P21709)", "assay": "EphA1 (h) Millipore kinase activity assay", "conditions": "Compound concentration 1.0 uM"}, "[2]": {"molecular_target": "Fibroblast growth factor receptor 4 (Homo sapiens) (UniProt P22455)", "sequence (P22455 22-802 limits assumed)": "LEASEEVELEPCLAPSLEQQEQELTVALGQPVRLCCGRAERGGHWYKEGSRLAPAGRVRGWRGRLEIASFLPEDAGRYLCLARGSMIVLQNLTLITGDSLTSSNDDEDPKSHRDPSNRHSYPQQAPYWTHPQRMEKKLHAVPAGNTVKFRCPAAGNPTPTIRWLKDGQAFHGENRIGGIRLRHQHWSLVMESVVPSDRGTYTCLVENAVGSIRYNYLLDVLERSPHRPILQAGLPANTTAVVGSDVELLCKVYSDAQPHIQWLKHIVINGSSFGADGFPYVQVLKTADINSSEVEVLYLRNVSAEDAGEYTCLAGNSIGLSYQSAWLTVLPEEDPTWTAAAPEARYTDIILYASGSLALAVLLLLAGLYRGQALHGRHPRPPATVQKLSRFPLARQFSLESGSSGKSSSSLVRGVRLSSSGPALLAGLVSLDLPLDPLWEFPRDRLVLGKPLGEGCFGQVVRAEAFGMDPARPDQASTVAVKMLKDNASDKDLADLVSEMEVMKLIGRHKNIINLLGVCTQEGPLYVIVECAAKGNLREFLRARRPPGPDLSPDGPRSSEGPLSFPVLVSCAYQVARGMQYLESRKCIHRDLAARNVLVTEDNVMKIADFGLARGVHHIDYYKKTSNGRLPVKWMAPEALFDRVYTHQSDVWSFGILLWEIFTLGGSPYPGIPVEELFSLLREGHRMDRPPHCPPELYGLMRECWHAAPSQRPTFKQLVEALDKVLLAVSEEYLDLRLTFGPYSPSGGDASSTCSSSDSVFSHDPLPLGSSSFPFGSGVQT", "assay": "FGFR4 (h) Millipore kinase activity assay", "conditions": "Compound concentration 1.0 uM"}, "[3]": {"molecular_target": "MAP kinase-activated protein kinase 3 (Homo sapiens) (UniProt Q16644)", "sequence (Q16644 whole entry, looked up)": "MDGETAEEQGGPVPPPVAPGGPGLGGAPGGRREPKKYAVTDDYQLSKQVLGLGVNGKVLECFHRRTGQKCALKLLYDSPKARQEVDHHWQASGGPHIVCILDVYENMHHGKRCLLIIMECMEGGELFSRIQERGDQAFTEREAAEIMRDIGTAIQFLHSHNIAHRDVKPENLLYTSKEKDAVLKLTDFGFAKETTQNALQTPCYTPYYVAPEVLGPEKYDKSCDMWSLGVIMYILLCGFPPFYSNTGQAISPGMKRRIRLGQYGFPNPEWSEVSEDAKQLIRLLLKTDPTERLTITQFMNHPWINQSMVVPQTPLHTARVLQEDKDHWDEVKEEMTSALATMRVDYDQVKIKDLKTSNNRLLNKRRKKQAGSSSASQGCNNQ", "assay": "MAPKAP-K3 (h) Millipore kinase activity assay", "conditions": "Compound concentration 1.0 uM"}, "[4]": {"molecular_target": "Ribosomal protein S6 kinase alpha-5 (Homo sapiens) (UniProt O75582)", "assay": "MSK1 (h) Millipore kinase activity assay", "conditions": "Compound concentration 1.0 uM"}, "[5]": {"molecular_target": "RAC-beta serine/threonine-protein kinase (Homo sapiens) (UniProt P31751)", "sequence (P31751 whole entry)": "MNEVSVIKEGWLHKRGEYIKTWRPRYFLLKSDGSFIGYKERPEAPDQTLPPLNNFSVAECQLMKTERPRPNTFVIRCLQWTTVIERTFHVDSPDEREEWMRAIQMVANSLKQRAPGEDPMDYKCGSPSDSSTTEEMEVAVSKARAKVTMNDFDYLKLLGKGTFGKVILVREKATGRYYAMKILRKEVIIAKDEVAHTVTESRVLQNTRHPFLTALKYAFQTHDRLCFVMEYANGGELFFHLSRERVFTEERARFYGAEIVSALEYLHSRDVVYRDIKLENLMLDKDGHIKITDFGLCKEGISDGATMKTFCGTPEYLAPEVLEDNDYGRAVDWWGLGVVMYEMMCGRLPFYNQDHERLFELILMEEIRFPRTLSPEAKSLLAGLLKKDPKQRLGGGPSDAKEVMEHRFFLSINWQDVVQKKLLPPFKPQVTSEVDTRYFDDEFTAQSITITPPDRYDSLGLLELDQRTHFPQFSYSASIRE", "assay": "PKBbeta (h) Millipore kinase activity assay", "conditions": "Compound concentration 1.0 uM"}, "[6]": {"molecular_target": "Protein kinase C beta type (Homo sapiens) (UniProt P05771)", "assay": "PKCbetaI (h) Millipore kinase activity assay", "conditions": "Compound concentration 1.0 uM"}, "[7]": {"molecular_target": "T1, GABA-A receptor; anion channel (Rattus norvegicus) (UniProt O09028+P15431+P18506+P18508+P19969+P20236+P23574+P23576+P28471+P28473+P30191+P62813+P63079+P63138+Q91ZM7+Q9ES14)", "assay": "Inhibition of GABAA, Muscimol, Central at 10 µM in the Eurofins-Panlabs radioligand binding assay (Eurofins_assay_226500)", "type": "protein-complex assay", "conditions": "Compound concentration 10.0 uM"}, "[8]": {"molecular_target": "Sigma non-opioid intracellular receptor 1 (Homo sapiens) (UniProt Q99720)", "assay": "Inhibition of Sigma 1 at 10 µM in the Eurofins-Panlabs radioligand binding assay (Eurofins_assay_278110)", "set-up": "ligand concentration 8 nM", "conditions": "Compound concentration 10.0 uM"}, "[9]": {"molecular_target": "Histamine H1 receptor (Homo sapiens) (UniProt P35367)", "conditions": "Compound concentration 10.0 uM"}, "[10]": {"molecular_target": "Alpha-1A adrenergic receptor (Homo sapiens) (UniProt P35348)", "conditions": "Rattus norvegicus; Compound concentration 10.0 uM"}, "[11]": {"molecular_target": "T2, Muscarinic acetylcholine receptor M1 (Homo sapiens) (UniProt P11229)", "T2 sequence (whole entry)": "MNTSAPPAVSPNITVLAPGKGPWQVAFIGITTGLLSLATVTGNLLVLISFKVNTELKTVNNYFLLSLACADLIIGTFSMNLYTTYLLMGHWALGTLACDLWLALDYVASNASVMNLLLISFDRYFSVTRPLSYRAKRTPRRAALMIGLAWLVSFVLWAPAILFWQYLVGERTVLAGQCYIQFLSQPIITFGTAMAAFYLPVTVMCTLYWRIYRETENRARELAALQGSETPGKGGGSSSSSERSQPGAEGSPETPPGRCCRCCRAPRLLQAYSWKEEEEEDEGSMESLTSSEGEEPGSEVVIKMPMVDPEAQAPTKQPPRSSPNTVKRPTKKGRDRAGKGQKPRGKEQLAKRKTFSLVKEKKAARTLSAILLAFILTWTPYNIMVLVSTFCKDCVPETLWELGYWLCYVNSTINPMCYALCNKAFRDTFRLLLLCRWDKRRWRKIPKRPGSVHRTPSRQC", "conditions": "Compound concentration 10.0 uM"}, "[12]": {"molecular_target": "Sodium-dependent dopamine transporter (Homo sapiens) (UniProt Q01959)", "conditions": "Compound concentration 10.0 uM"}, "[13]": {"molecular_target": "Protein-tyrosine kinase 6 (Homo sapiens) (UniProt Q13882)", "assay": "BRK (h) Millipore kinase activity assay", "conditions": "Compound concentration 1.0 uM"}, "[14]": {"molecular_target": "Calcium/calmodulin-dependent protein kinase type II subunit beta (Homo sapiens) (UniProt Q13554)", "sequence (Q13554 whole entry)": "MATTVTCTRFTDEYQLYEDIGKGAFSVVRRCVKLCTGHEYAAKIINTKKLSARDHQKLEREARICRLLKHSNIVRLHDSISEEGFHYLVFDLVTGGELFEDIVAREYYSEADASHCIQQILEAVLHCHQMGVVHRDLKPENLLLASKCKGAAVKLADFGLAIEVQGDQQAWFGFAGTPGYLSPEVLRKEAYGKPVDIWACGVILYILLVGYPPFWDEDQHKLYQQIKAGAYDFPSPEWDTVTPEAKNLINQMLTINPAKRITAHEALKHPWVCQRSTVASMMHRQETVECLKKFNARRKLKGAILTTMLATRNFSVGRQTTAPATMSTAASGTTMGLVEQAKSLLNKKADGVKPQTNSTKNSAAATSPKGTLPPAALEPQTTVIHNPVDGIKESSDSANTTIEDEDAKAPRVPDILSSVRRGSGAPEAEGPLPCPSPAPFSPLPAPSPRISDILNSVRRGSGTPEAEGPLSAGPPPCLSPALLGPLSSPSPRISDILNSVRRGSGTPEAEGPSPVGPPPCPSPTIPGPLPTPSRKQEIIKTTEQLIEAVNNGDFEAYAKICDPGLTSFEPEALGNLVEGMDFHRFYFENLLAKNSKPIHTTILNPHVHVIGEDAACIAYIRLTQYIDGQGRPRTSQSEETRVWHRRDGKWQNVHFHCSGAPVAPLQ", "conditions": "Compound concentration 1000.0 nM"}, "[15]": {"molecular_target": "Cyclin-dependent kinase 19 (Homo sapiens) (UniProt Q9BWU1)", "conditions": "Compound concentration 1000.0 nM"}, "[16]": {"molecular_target": "Death-associated protein kinase 1 (Homo sapiens) (UniProt P53355)", "conditions": "Compound concentration 1000.0 nM"}, "[17]": {"system": "Epidermal growth factor receptor (Homo sapiens), P00533 [L858R,T790M]", "conditions": "Compound concentration 1000.0 nM"}, "[18]": {"molecular_target": "Receptor tyrosine-protein kinase erbB-3 (Homo sapiens) (UniProt P21860)", "conditions": "Compound concentration 1000.0 nM"}, "[19]": {"molecular_target": "Mitogen-activated protein kinase 15 (Homo sapiens) (UniProt Q8TD08)", "conditions": "Compound concentration 1000.0 nM"}, "[20]": {"molecular_target": "Tyrosine-protein kinase Fer (Homo sapiens) (UniProt P16591)", "conditions": "Compound concentration 1000.0 nM"}, "[21]": {"system": "eIF-2-alpha kinase GCN2 (Homo sapiens), Q9P2K8 [S808G]", "conditions": "Compound concentration 1000.0 nM"}, "[22]": {"molecular_target": "Serine/threonine-protein kinase MARK2 (Homo sapiens) (UniProt Q7KZI7)", "sequence (Q7KZI7 whole entry)": "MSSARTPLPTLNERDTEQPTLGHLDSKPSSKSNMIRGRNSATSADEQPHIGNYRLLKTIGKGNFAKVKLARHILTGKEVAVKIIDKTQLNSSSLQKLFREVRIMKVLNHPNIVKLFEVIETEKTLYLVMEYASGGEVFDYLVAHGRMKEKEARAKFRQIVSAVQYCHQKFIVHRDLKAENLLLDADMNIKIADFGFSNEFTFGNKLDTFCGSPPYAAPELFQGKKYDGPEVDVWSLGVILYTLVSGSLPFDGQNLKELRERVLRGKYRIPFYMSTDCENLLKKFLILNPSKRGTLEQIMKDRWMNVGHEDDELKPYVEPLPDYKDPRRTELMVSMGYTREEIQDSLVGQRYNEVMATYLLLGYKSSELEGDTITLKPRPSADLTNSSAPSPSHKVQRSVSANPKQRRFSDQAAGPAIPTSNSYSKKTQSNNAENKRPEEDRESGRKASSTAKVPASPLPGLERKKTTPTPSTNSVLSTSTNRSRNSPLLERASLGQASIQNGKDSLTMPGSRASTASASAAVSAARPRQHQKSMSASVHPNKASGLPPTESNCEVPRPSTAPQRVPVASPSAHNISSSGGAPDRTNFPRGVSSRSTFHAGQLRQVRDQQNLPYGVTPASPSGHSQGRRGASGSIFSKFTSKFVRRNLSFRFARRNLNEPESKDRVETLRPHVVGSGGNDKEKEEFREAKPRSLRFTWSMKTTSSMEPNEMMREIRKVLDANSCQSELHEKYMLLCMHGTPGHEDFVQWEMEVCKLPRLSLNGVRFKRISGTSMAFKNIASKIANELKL", "conditions": "Compound concentration 1000.0 nM"}, "[23]": {"molecular_target": "Dual specificity mitogen-activated protein kinase kinase 5 (Homo sapiens) (UniProt Q13163)", "conditions": "Compound concentration 1000.0 nM"}, "[24]": {"molecular_target": "Serine/threonine-protein kinase MRCK alpha (Homo sapiens) (UniProt Q5VT25)", "conditions": "Compound concentration 1000.0 nM"}, "[25]": {"molecular_target": "Serine/threonine-protein kinase mTOR (Homo sapiens) (UniProt P42345)", "conditions": "Compound concentration 1000.0 nM"}, "[26]": {"system": "Phosphatidylinositol 4,5-bisphosphate 3-kinase catalytic subunit alpha isoform (Homo sapiens), P42336 [Q546K]", "conditions": "Compound concentration 1000.0 nM"}, "[27]": {"molecular_target": "Serine/threonine-protein kinase pim-3 (Homo sapiens) (UniProt Q86V86)", "conditions": "Compound concentration 1000.0 nM"}, "[28]": {"molecular_target": "Serine/threonine-protein kinase PLK4 (Homo sapiens) (UniProt O00444)", "conditions": "Compound concentration 1000.0 nM"}, "[29]": {"molecular_target": "Protein kinase C delta type (Homo sapiens) (UniProt Q05655)", "sequence (Q05655 whole entry, looked up)": "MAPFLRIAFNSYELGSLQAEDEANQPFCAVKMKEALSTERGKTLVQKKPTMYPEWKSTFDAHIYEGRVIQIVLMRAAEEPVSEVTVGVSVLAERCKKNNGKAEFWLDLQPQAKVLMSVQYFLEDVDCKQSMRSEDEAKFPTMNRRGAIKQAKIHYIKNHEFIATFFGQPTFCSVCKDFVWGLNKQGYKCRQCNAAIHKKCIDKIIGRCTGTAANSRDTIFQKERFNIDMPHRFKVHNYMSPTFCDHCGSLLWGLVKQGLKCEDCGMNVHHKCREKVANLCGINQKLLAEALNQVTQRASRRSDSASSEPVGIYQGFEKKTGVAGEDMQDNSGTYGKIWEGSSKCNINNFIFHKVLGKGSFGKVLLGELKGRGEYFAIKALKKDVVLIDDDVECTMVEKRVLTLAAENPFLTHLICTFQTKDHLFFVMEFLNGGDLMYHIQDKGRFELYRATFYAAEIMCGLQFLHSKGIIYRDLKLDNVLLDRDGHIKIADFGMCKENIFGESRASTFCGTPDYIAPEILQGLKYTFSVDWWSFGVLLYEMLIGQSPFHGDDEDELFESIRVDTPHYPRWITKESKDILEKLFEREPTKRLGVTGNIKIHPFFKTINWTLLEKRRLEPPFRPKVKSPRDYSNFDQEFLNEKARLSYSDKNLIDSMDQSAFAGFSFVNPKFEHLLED", "conditions": "Compound concentration 1000.0 nM"}, "[30]": {"molecular_target": "Protein kinase C eta type (Homo sapiens) (UniProt P24723)", "sequence (P24723 whole entry)": "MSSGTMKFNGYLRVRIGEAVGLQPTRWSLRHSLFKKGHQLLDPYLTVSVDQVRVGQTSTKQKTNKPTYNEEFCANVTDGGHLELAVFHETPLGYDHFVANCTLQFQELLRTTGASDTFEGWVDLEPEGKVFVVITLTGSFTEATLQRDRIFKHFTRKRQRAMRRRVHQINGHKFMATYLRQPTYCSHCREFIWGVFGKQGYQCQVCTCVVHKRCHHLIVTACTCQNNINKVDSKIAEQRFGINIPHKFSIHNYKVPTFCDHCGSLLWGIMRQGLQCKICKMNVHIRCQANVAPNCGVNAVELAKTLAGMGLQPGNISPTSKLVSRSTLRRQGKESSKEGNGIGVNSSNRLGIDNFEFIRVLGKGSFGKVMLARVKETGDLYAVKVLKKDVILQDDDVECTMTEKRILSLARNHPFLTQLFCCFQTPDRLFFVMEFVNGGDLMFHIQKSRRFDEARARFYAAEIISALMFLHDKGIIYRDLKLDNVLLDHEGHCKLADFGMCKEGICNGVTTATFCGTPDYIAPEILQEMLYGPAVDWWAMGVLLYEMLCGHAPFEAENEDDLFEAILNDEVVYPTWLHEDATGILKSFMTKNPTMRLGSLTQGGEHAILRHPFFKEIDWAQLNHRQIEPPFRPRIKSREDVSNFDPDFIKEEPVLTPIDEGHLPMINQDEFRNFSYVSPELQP", "conditions": "Compound concentration 1000.0 nM"}, "[31]": {"molecular_target": "Receptor-interacting serine/threonine-protein kinase 4 (Homo sapiens) (UniProt P57078)", "conditions": "Compound concentration 1000.0 nM"}, "[32]": {"molecular_target": "Serine/threonine-protein kinase Sgk1 (Homo sapiens) (UniProt O00141)", "sequence (O00141 whole entry)": "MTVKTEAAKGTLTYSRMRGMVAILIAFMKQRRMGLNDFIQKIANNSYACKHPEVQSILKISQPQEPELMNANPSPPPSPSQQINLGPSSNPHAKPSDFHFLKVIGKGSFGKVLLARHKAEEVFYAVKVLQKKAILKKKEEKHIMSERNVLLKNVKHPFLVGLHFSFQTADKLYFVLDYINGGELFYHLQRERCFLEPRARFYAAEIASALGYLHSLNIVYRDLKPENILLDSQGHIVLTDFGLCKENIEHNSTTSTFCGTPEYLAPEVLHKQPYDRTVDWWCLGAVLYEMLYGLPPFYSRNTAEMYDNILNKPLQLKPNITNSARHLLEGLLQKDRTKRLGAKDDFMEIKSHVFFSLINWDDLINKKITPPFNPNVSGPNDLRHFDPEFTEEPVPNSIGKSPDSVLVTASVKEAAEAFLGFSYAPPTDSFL", "conditions": "Compound concentration 1000.0 nM"}, "[33]": {"molecular_target": "Serine/threonine-protein kinase Sgk3 (Homo sapiens) (UniProt Q96BR1)", "conditions": "Compound concentration 1000.0 nM"}, "[34]": {"molecular_target": "Mitogen-activated protein kinase kinase kinase 20 (Homo sapiens) (UniProt Q9NYL2)", "conditions": "Compound concentration 1000.0 nM"}, "[35]": {"molecular_target": "T1, GABA-A receptor; anion channel (Rattus norvegicus)", "conditions": "Compound concentration 10.0 uM"}},
  "data": [
    {"compound": "CC1=C(C#N)C(c2ccc3[nH]nc(C)c3c2)C(C#N)=C(C)N1", "note": "[BAY-474]", "values": [
      {"measurement": "inhibition", "setting": "[1]", "value": 0, "unit": "%"},
      {"measurement": "inhibition", "setting": "[2]", "value": 18, "unit": "%"},
      {"measurement": "inhibition", "setting": "[3]", "value": -5, "unit": "%"},
      {"measurement": "inhibition", "setting": "[4]", "value": -1, "unit": "%"},
      {"measurement": "inhibition", "setting": "[5]", "value": -5, "unit": "%"},
      {"measurement": "inhibition", "setting": "[6]", "value": -4, "unit": "%"},
      {"measurement": "inhibition", "setting": "[7]", "value": 10, "unit": "%"},
      {"measurement": "inhibition", "setting": "[8]", "value": -7, "unit": "%"},
      {"measurement": "inhibition", "setting": "[9]", "value": 17.7, "unit": "%"},
      {"measurement": "inhibition", "setting": "[10]", "value": 1, "unit": "%"},
      {"measurement": "inhibition", "setting": "[11]", "value": 0, "unit": "%"},
      {"measurement": "inhibition", "setting": "[12]", "value": 0, "unit": "%"},
      {"measurement": "inhibition", "setting": "[13]", "value": -7, "unit": "%"}
    ]},
    {"compound": "CC1=C(C#N)[C@@H](c2ccc3[nH]nc(C)c3c2)C(C#N)=C(c2ccc(Cl)cc2)N1", "note": "[BAY-827]", "values": [
      {"measurement": "residual activity", "setting": "[14]", "value": 100, "unit": "%"},
      {"measurement": "residual activity", "setting": "[15]", "value": 66.8, "unit": "%"},
      {"measurement": "residual activity", "setting": "[16]", "value": 100, "unit": "%"},
      {"measurement": "residual activity", "setting": "[17]", "value": 100, "unit": "%"},
      {"measurement": "residual activity", "setting": "[18]", "value": 63.9, "unit": "%"},
      {"measurement": "residual activity", "setting": "[19]", "value": 100, "unit": "%"},
      {"measurement": "residual activity", "setting": "[20]", "value": 97.9, "unit": "%"},
      {"measurement": "residual activity", "setting": "[21]", "value": 89.9, "unit": "%"},
      {"measurement": "residual activity", "setting": "[22]", "value": 100, "unit": "%"},
      {"measurement": "residual activity", "setting": "[23]", "value": 49.9, "unit": "%"},
      {"measurement": "residual activity", "setting": "[24]", "value": 82.2, "unit": "%"},
      {"measurement": "residual activity", "setting": "[25]", "value": 79.6, "unit": "%"},
      {"measurement": "residual activity", "setting": "[26]", "value": 93.7, "unit": "%"},
      {"measurement": "residual activity", "setting": "[27]", "value": 100, "unit": "%"},
      {"measurement": "residual activity", "setting": "[28]", "value": 100, "unit": "%"},
      {"measurement": "residual activity", "setting": "[29]", "value": 86.3, "unit": "%"},
      {"measurement": "residual activity", "setting": "[30]", "value": 96.1, "unit": "%"},
      {"measurement": "residual activity", "setting": "[31]", "value": 71.8, "unit": "%"},
      {"measurement": "residual activity", "setting": "[32]", "value": 100, "unit": "%"},
      {"measurement": "residual activity", "setting": "[33]", "value": 84.5, "unit": "%"},
      {"measurement": "residual activity", "setting": "[34]", "value": 93.6, "unit": "%"},
      {"measurement": "inhibition", "setting": "[35]", "value": -7.24, "unit": "%"}
    ]}
  ]
}
